From ChEMBL document CHEMBL1201862, “PubChem BioAssay data set” (2004)
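Grown in 96-well plates, cells were treated for 48 hours with each compound at five concentrations. Insufficient inhibition: endpoint recorded as highest concentration tested. Abbreviation: GI50, concentration required for 50% inhibition of growth.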 Activity calls are given as the source filed them. Cut-off read from the data, not from the text of the source: active = GI50 up to about 1.1 µM and inactive = higher.

How the values were obtained:
Experiment in all cases: inhibition of tumour cell growth, NCI panel, 48 h
786-0 = tested on: 786-0
A498 = tested on: A498
A549 = tested on: A549
ACHN = tested on: ACHN
BT-549 = tested on: BT-549
CAKI-1 = tested on: CAKI-1
CCRF-CEM = tested on: CCRF-CEM
COLO 205 = tested on: COLO 205
DU-145 = tested on: DU-145
EKVX = tested on: EKVX
HCC 2998 = tested on: HCC 2998
HCT-116 = tested on: HCT-116
HCT-15 = tested on: HCT-15
HL-60 = tested on: HL-60
HOP-62 = tested on: HOP-62
HOP-92 = tested on: HOP-92
HT-29 = tested on: HT-29
Hs-578T = tested on: Hs-578T
IGROV-1 = tested on: IGROV-1
K562 = tested on: K562
KM12 = tested on: KM12
LOX IMVI = tested on: LOX IMVI
M14 = tested on: M14
MCF7 = tested on: MCF7
MDA-MB-231 = tested on: MDA-MB-231
MDA-MB-435 = tested on: MDA-MB-435
MDA-N = tested on: MDA-N
MOLT-4 = tested on: MOLT-4
Malme-3M = tested on: Malme-3M
NCI-H226 = tested on: NCI-H226
NCI-H23 = tested on: NCI-H23
NCI-H460 = tested on: NCI-H460
NCI-H522 = tested on: NCI-H522
NCI/ADR-RES = tested on: NCI/ADR-RES
OVCAR-3 = tested on: OVCAR-3
OVCAR-4 = tested on: OVCAR-4
OVCAR-5 = tested on: OVCAR-5
OVCAR-8 = tested on: OVCAR-8
PC-3 = tested on: PC-3
RPMI-8226 = tested on: RPMI-8226
RXF 393 = tested on: RXF 393
SF-268 = tested on: SF-268
SF-295 = tested on: SF-295
SF-539 = tested on: SF-539
SK-MEL-28 = tested on: SK-MEL-28
SK-MEL-2 = tested on: SK-MEL-2
SK-MEL-5 = tested on: SK-MEL-5
SK-OV-3 = tested on: SK-OV-3
SN12C = tested on: SN12C
SNB-19 = tested on: SNB-19
SNB-75 = tested on: SNB-75
SR = tested on: SR
SW-620 = tested on: SW-620
T47D = tested on: T47D
TK-10 = tested on: TK-10
U-251 = tested on: U-251
UACC-257 = tested on: UACC-257
UACC-62 = tested on: UACC-62
UO-31 = tested on: UO-31

Cc1cc(C)nc(SC(C)C(=O)N/N=C/c2ccc(OCc3ccccc3)cc2)n1 (stereo not drawn)
GI50 (786-0): 36.6 µM (inactive) | GI50 (A498): 31.8 µM (inactive) | GI50 (A549): 31.3 µM (inactive) | GI50 (ACHN): 25.2 µM (inactive) | GI50 (BT-549): 26.5 µM (inactive) | GI50 (CAKI-1): 20.5 µM (inactive) | GI50 (CCRF-CEM): 19.1 µM (inactive) | GI50 (COLO 205): 20.8 µM (inactive) | GI50 (DU-145): 37.7 µM (inactive) | GI50 (EKVX): 25.2 µM (inactive) | GI50 (HCC 2998): 28.1 µM (inactive) | GI50 (HCT-116): 23.9 µM (inactive) | GI50 (HCT-15): 26.4 µM | GI50 (HL-60): 14.5 µM (inactive) | GI50 (HOP-62): 36 µM (inactive) | GI50 (HOP-92): 28.6 µM (inactive) | GI50 (HT-29): 14.5 µM (inactive) | GI50 (Hs-578T): 52 µM (inactive) | GI50 (IGROV-1): 54.8 µM (inactive) | GI50 (K562): 6.11 µM (inactive) | GI50 (KM12): > 100 µM (inactive) | GI50 (LOX IMVI): 22.1 µM (inactive) | GI50 (M14): 36.8 µM (inactive) | GI50 (MCF7): 21 µM (inactive) | GI50 (MDA-MB-231): 19.7 µM (inactive) | GI50 (MDA-MB-435): 26.7 µM (inactive) | GI50 (MDA-N): 22.8 µM (inactive) | GI50 (MOLT-4): 17.1 µM (inactive) | GI50 (Malme-3M): 22.3 µM (inactive) | GI50 (NCI-H226): 18.9 µM (inactive) | GI50 (NCI-H23): 18 µM (inactive) | GI50 (NCI-H460): 17.1 µM (inactive) | GI50 (NCI-H522): 15.3 µM (inactive) | GI50 (NCI/ADR-RES): 21.8 µM (inactive) | GI50 (OVCAR-3): 19.7 µM (inactive) | GI50 (OVCAR-4): 15.7 µM (inactive) | GI50 (OVCAR-5): 78.9 µM (inactive) | GI50 (OVCAR-8): 30.4 µM (inactive) | GI50 (PC-3): 22.4 µM (inactive) | GI50 (RPMI-8226): 13.3 µM (inactive) | GI50 (RXF 393): 19.1 µM (inactive) | GI50 (SF-268): 40.6 µM (inactive) | GI50 (SF-295): 19.1 µM (inactive) | GI50 (SF-539): 50.8 µM (inactive) | GI50 (SK-MEL-28): 53.2 µM (inactive) | GI50 (SK-MEL-2): 21.6 µM (inactive) | GI50 (SK-MEL-5): 7.03 µM (inactive) | GI50 (SK-OV-3): 41.5 µM (inactive) | GI50 (SN12C): 31.3 µM (inactive) | GI50 (SNB-19): 48.5 µM (inactive) | GI50 (SNB-75): 33 µM (inactive) | GI50 (SR): 7.89 µM (inactive) | GI50 (SW-620): 39.5 µM (inactive) | GI50 (T47D): 9.53 µM (inactive) | GI50 (TK-10): 27.2 µM (inactive) | GI50 (U-251): 17 µM (inactive) | GI50 (UACC-257): 7.41 µM (inactive) | GI50 (UACC-62): 14.5 µM (inactive) | GI50 (UO-31): 32.1 µM (inactive)

COc1ccc(NC(=S)N/N=C2\C(=O)Nc3ccccc32)cc1
GI50 (786-0): 7.55 µM (inactive) | GI50 (A498): 40.6 µM (inactive) | GI50 (A549): 5.52 µM (inactive) | GI50 (ACHN): 6.5 µM (inactive) | GI50 (BT-549): 4.74 µM (inactive) | GI50 (CAKI-1): 5.11 µM (inactive) | GI50 (CCRF-CEM): 2.43 µM (inactive) | GI50 (COLO 205): 6.52 µM (inactive) | GI50 (DU-145): 13.6 µM (inactive) | GI50 (EKVX): 9.14 µM (inactive) | GI50 (HCC 2998): 27.2 µM (inactive) | GI50 (HCT-116): 5.14 µM (inactive) | GI50 (HCT-15): 0.984 µM | GI50 (HL-60): 2.49 µM (inactive) | GI50 (HOP-62): 12.2 µM (inactive) | GI50 (HOP-92): 44 µM (inactive) | GI50 (HT-29): 7.96 µM (inactive) | GI50 (Hs-578T): 29.2 µM (inactive) | GI50 (IGROV-1): 4.83 µM (inactive) | GI50 (K562): 5.69 µM (inactive) | GI50 (KM12): 13 µM (inactive) | GI50 (LOX IMVI): 2.92 µM (inactive) | GI50 (M14): 21.9 µM (inactive) | GI50 (MCF7): 9.48 µM (inactive) | GI50 (MDA-MB-231): 30.9 µM (inactive) | GI50 (MDA-MB-435): 52.2 µM (inactive) | GI50 (MDA-N): 55.6 µM (inactive) | GI50 (MOLT-4): 4.93 µM (inactive) | GI50 (Malme-3M): 12.9 µM (inactive) | GI50 (NCI-H226): 8.97 µM (inactive) | GI50 (NCI-H23): 14.7 µM (inactive) | GI50 (NCI-H460): 3.13 µM (inactive) | GI50 (NCI-H522): 18.7 µM (inactive) | GI50 (NCI/ADR-RES): 2.07 µM (inactive) | GI50 (OVCAR-3): 28.8 µM (inactive) | GI50 (OVCAR-4): 9.77 µM (inactive) | GI50 (OVCAR-5): 65 µM (inactive) | GI50 (OVCAR-8): 7.55 µM (inactive) | GI50 (PC-3): 19.2 µM (inactive) | GI50 (RPMI-8226): 31.4 µM (inactive) | GI50 (RXF 393): 9.27 µM (inactive) | GI50 (SF-268): 17.5 µM (inactive) | GI50 (SF-295): 3.47 µM (inactive) | GI50 (SF-539): 6.41 µM (inactive) | GI50 (SK-MEL-28): 43.1 µM (inactive) | GI50 (SK-MEL-2): 40.1 µM (inactive) | GI50 (SK-MEL-5): 9.27 µM (inactive) | GI50 (SK-OV-3): 20.8 µM (inactive) | GI50 (SN12C): 40.4 µM (inactive) | GI50 (SNB-19): 41.7 µM (inactive) | GI50 (SNB-75): 48 µM (inactive) | GI50 (SR): 8.51 µM (inactive) | GI50 (SW-620): 6.28 µM (inactive) | GI50 (T47D): 7.98 µM (inactive) | GI50 (TK-10): 22 µM (inactive) | GI50 (U-251): 5.22 µM (inactive) | GI50 (UACC-257): 47 µM (inactive) | GI50 (UACC-62): 6.24 µM (inactive) | GI50 (UO-31): 5.18 µM (inactive)
